Measured values reported in ChEMBL document CHEMBL1133428, “Naphthyl ketones: a new class of Janus kinase 3 inhibitors” (Bioorg Med Chem Lett, 2000).

Columns and labels:
[1] = molecular target: Cyclin-dependent kinase 4 (Homo sapiens, UniProt P11802); assay: Inhibition of Cyclin-dependent kinase 4
[2] = molecular target: Tyrosine-protein kinase Lck (Homo sapiens, UniProt P06239); assay: Inhibition of p56 Lck tyrosine kinase
[3] = molecular target: Epidermal growth factor receptor (Homo sapiens, UniProt P00533); assay: Inhibition of Epidermal growth factor receptor
[4] = molecular target: Tyrosine-protein kinase JAK1 (Homo sapiens, UniProt P23458); assay: Inhibition of Janus kinase 1
Tyrosine-protein kinase JAK1, sequence (P23458 whole entry): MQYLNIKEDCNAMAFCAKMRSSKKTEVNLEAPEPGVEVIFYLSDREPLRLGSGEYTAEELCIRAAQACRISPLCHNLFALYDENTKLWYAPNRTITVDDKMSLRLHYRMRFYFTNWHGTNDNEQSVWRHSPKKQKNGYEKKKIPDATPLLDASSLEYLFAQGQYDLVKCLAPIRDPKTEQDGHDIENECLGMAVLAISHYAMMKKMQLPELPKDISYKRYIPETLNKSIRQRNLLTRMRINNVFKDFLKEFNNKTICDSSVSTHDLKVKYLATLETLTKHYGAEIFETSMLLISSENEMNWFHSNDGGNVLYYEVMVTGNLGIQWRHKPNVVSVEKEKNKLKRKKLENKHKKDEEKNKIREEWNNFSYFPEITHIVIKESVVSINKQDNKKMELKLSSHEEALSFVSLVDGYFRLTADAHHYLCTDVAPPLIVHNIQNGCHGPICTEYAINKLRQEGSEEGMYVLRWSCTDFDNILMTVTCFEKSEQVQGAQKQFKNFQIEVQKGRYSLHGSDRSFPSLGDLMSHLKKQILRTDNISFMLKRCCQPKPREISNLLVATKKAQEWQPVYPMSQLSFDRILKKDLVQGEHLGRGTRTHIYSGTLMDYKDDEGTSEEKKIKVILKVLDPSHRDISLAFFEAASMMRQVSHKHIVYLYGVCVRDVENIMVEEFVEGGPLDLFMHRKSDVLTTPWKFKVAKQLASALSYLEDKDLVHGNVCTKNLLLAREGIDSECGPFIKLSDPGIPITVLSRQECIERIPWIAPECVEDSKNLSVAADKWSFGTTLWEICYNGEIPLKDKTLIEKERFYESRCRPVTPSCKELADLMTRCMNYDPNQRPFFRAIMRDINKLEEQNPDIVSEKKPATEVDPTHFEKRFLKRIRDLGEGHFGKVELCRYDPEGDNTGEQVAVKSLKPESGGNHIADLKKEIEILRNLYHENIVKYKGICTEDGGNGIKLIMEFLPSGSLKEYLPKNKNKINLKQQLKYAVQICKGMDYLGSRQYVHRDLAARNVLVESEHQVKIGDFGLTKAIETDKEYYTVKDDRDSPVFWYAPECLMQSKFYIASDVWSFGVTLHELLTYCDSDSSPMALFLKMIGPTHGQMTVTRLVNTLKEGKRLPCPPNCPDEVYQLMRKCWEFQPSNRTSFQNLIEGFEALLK

Epidermal growth factor receptor, sequence (P00533 whole entry): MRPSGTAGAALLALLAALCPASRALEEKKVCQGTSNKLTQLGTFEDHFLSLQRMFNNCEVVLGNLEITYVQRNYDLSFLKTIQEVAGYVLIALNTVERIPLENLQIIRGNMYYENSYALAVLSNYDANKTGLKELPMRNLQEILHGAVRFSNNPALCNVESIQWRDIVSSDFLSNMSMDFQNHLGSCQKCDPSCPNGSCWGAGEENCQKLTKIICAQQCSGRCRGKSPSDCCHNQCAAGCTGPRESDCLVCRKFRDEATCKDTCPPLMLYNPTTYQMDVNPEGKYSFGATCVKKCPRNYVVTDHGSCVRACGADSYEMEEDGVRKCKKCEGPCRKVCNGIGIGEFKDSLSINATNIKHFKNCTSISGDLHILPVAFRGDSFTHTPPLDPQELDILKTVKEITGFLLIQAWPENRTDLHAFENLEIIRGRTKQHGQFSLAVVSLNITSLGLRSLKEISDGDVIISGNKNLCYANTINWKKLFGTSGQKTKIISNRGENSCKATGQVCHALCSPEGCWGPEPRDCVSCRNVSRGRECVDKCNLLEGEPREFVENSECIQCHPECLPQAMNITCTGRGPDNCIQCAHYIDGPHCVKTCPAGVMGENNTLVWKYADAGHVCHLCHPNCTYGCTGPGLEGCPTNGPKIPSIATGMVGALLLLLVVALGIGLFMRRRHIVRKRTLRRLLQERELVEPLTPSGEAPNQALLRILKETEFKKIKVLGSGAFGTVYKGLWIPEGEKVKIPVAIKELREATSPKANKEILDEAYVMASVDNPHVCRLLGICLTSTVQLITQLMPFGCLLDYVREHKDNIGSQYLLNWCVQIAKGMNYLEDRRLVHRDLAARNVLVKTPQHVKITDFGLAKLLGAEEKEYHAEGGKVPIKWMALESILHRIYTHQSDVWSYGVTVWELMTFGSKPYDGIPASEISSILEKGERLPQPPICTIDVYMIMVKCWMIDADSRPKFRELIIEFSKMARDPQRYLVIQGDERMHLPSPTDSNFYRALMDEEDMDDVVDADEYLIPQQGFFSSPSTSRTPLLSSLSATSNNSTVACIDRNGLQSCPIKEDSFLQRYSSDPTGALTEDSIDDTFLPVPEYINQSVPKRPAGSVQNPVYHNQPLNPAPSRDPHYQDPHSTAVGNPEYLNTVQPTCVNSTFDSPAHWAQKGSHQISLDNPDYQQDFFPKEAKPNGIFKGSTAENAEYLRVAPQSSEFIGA
Tyrosine-protein kinase Lck, sequence (P06239 whole entry): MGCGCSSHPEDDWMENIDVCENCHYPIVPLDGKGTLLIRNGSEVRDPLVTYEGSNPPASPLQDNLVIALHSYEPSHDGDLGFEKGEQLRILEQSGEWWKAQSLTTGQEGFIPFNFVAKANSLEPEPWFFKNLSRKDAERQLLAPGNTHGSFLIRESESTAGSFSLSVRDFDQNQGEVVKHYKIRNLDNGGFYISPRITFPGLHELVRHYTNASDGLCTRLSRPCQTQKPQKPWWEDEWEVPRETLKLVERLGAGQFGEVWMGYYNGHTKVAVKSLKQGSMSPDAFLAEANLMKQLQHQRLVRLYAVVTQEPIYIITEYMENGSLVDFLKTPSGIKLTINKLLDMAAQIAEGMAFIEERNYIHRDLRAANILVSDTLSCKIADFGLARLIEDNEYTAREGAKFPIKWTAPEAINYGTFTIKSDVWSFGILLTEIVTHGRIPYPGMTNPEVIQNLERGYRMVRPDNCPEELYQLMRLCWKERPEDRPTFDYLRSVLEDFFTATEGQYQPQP
Cyclin-dependent kinase 4, sequence (P11802 whole entry): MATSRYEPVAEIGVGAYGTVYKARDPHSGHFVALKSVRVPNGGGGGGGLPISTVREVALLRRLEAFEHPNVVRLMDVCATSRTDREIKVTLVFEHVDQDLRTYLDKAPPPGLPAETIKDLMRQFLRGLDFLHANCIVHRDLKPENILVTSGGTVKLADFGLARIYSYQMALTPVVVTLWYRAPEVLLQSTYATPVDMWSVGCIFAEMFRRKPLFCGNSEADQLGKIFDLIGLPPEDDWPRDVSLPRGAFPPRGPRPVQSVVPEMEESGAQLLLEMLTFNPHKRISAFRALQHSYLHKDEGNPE

C=CC(=O)c1ccc2ccccc2c1
IC50 [1]: > 10 µM
IC50 [2]: > 10 µM
IC50 [3]: 10 µM
IC50 [4]: 20 µM

CC(C)N(CCC(=O)c1ccc2ccccc2c1)Cc1ccccc1
IC50 [1]: > 10 µM
IC50 [2]: > 10 µM
IC50 [3]: 2.51 µM
IC50 [4]: 39.8 µM
